Experimental data as given in US20060127329A1, “Tartar control oral care composition containing extract of magnolia” (Colgate-Palmolive Company, priority 2004, published 2006).

What follows are compounds tested on representative oral bacteria S. mutans, F. nucleatum, V. parvula, A. naslundii, P. gingivitis (assay: in vitro test Minimal Inhibitory Concentration (MIC)). Conditions: no numbers given.
Assay type: cell-based
Excerpt: The compositions of the present invention comprise at least one active compound found in an extract of magnolia. As referred to here, such an “extract” of magnolia is an extract from dried cortex, or bark, of a plant from the Magnoliaceae family, such as Magnolia officinalis, (hereinafter “magnolia”) or a synthetic or semi-synthetic equivalent of such an extract or an active component thereof. […] In other embodiments, the antibacterial ingredient comprises an extract of magnolia. […] It should be noted that any plant from the Magnoliaceae family is suitable for the present invention and may be used in alternate embodiments, preferably such that the extract comprises an antimicrobially effective concentration of a compound selected from the group consisting of magnolol, honokiol, tetrahydromagnolol, tetrahydrohonokiol, and mixtures thereof.

Row | Compound | bactericidal properties against representative oral bacteria
1 | CCCc1ccc(O)c(-c2ccc(O)c(CCC)c2)c1 [tetrahydrohonokiol] | demonstrated bactericidal properties
2 | C=CCc1ccc(O)c(-c2ccc(O)c(CC=C)c2)c1 [honokiol] | demonstrated bactericidal properties
3 | CCCc1ccc(O)c(-c2cc(CCC)ccc2O)c1 [tetrahydromagnolol] | demonstrated bactericidal properties
4 | C=CCc1ccc(O)c(-c2cc(CC=C)ccc2O)c1 [magnolol] | demonstrated bactericidal properties
